# Source: ChEMBL document CHEMBL3045479, “Synthesis and anti-cancer activity of some novel C-17 analogs of ursolic and oleanolic acids” (2013)
# Structures can show the parent of a compound that is named as a salt.
# Assays:
# Format in all cases: functional
# THP-1 = test: Growth inhibition of Homo sapiens (human) THP1 cells at 10 uM after 48 hr by SRB assay; details: THP-1, 48 h, read-out: GI
# PC-3 = test: Growth inhibition of Homo sapiens (human) PC3 cells at 10 uM after 48 hr by SRB assay; details: PC-3, 48 h, read-out: GI
# A549 = test: Growth inhibition of Homo sapiens (human) A549 cells at 10 uM after 48 hr by SRB assay; details: A549, 48 h, read-out: GI
# COLO 205 = test: Growth inhibition of Homo sapiens (human) COLO205 cells at 10 uM after 48 hr by SRB assay; details: COLO 205, 48 h, read-out: GI
# IMR-32 = test: Growth inhibition of Homo sapiens (human) IMR32 cells at 10 uM after 48 hr by SRB assay; details: IMR-32, 48 h, read-out: GI
# SiHa = test: Growth inhibition of Homo sapiens (human) SiHa cells at 10 uM after 48 hr by SRB assay; details: read-out: GI
# HeLa = test: Growth inhibition of Homo sapiens (human) HeLa cells at 10 uM after 48 hr by SRB assay; details: read-out: GI
# SW-620 = test: Growth inhibition of Homo sapiens (human) SW620 cells at 10 uM after 48 hr by SRB assay; details: SW-620, 48 h, read-out: GI
SMILES,inhibition of growth at 10 µM (THP-1),inhibition of growth at 10 µM (PC-3),inhibition of growth at 10 µM (A549),inhibition of growth at 10 µM (COLO 205),inhibition of growth at 10 µM (IMR-32),inhibition of growth at 10 µM (SiHa),inhibition of growth at 10 µM (HeLa),inhibition of growth at 10 µM (SW-620)
C[C@H]1[C@H](C)CC[C@]2(C(=O)OCCCBr)CC[C@]3(C)C(=CC[C@@H]4[C@@]5(C)CC[C@H](O)C(C)(C)[C@@H]5CC[C@]43C)[C@H]12 [BROMOPROPYL-3BETA-HYDROXY-URS-12-EN-28-OATE],68%,0%,9%,10%,,,,
C#CCOC(=O)[C@]12CCC(C)(C)C[C@H]1C1=CC[C@@H]3[C@@]4(C)CC[C@H](O)C(C)(C)[C@@H]4CC[C@@]3(C)[C@]1(C)CC2 [3BETA-HYDROXY-OLEN-12-EN-28-PROPARGYLATE],,,20%,15%,16%,30%,27%,2%
COC(=O)[C@]12CCC(C)(C)C[C@H]1C1=CC[C@@H]3[C@@]4(C)CC[C@H](O)C(C)(C)[C@@H]4CC[C@@]3(C)[C@]1(C)CC2 [METHYL OLEANOLATE],,,48%,0%,55%,21%,18%,8%
C[C@H]1[C@H](C)CC[C@]2(C(=O)OCCCCCBr)CC[C@]3(C)C(=CC[C@@H]4[C@@]5(C)CC[C@H](O)C(C)(C)[C@@H]5CC[C@]43C)[C@H]12 [BROMOPENTYL-3BETA-HYDROXY-URS-12-EN-28-OATE],10%,6%,7%,1%,,,,
COC(=O)COC(=O)[C@]12CC[C@@H](C)[C@H](C)[C@H]1C1=CC[C@@H]3[C@@]4(C)CC[C@H](O)C(C)(C)[C@@H]4CC[C@@]3(C)[C@]1(C)CC2 [3BETA-HYDROXY-URS-12-EN-28-METHYL ACETOACETATE],,,23%,0%,18%,24%,11%,0%
CC(C)=CCOC(=O)[C@]12CCC(C)(C)C[C@H]1C1=CC[C@@H]3[C@@]4(C)CC[C@H](O)C(C)(C)[C@@H]4CC[C@@]3(C)[C@]1(C)CC2 [3BETA-HYDROXY-OLEAN-12-EN-28-PRENYLATE],,,25%,0%,16%,36%,5%,13%
COC(=O)COC(=O)[C@]12CCC(C)(C)C[C@H]1C1=CC[C@@H]3[C@@]4(C)CC[C@H](O)C(C)(C)[C@@H]4CC[C@@]3(C)[C@]1(C)CC2 [3BETA-HYDROXY-OLEAN-12-EN-28-METHYL ACETOACETATE],,,25%,2%,18%,19%,13%,4%
C[C@H]1[C@H](C)CC[C@]2(C(=O)OCCCCCCCCCBr)CC[C@]3(C)C(=CC[C@@H]4[C@@]5(C)CC[C@H](O)C(C)(C)[C@@H]5CC[C@]43C)[C@H]12 [BROMONONYL-3BETA-HYDROXY-URS-12-EN-28-OATE],0%,9%,0%,3%,,,,
COC(=O)[C@]12CC[C@@H](C)[C@H](C)[C@H]1C1=CC[C@@H]3[C@@]4(C)CC[C@H](O)C(C)(C)[C@@H]4CC[C@@]3(C)[C@]1(C)CC2 [METHYL URSOLATE],,,20%,0%,11%,21%,2%,0%
C=CCOC(=O)[C@]12CC[C@@H](C)[C@H](C)[C@H]1C1=CC[C@@H]3[C@@]4(C)CC[C@H](O)C(C)(C)[C@@H]4CC[C@@]3(C)[C@]1(C)CC2 [3BETA-HYDROXY-URS-12-EN-28-ALLYLATE],,,19%,0%,20%,25%,0%,0%
C[C@H]1[C@H](C)CC[C@]2(C(=O)OCBr)CC[C@]3(C)C(=CC[C@@H]4[C@@]5(C)CC[C@H](O)C(C)(C)[C@@H]5CC[C@]43C)[C@H]12 [BROMOMETHYL-3BETA-HYDROXY-URS-12-EN-28-OATE],49%,6%,7%,13%,,,,
C#CCOC(=O)[C@]12CC[C@@H](C)[C@H](C)[C@H]1C1=CC[C@@H]3[C@@]4(C)CC[C@H](O)C(C)(C)[C@@H]4CC[C@@]3(C)[C@]1(C)CC2 [3BETA-HYDROXY-URS-12-EN-28-PROPARGYLATE],,,24%,0%,11%,4%,0%,0%
COc1cccc2c1C(=O)c1c(O)c3c(c(O)c1C2=O)C[C@@](O)(C(=O)CO)C[C@@H]3O[C@H]1C[C@H](N)[C@H](O)[C@H](C)O1 [DOXORUBICIN HYDROCHLORIDE],,,50%,89%,82%,,58%,38%
C=CCOC(=O)[C@]12CCC(C)(C)C[C@H]1C1=CC[C@@H]3[C@@]4(C)CC[C@H](O)C(C)(C)[C@@H]4CC[C@@]3(C)[C@]1(C)CC2 [3BETA-HYDROXY-OLEAN-12-EN-28-ALLYLATE],,,31%,0%,16%,15%,0%,1%
CC(=O)O[C@H]1C(=O)[C@@]2(C)[C@H]([C@H](OC(=O)c3ccccc3)[C@]3(O)C[C@H](OC(=O)[C@H](O)[C@@H](NC(=O)c4ccccc4)c4ccccc4)C(C)=C1C3(C)C)[C@]1(OC(C)=O)CO[C@@H]1C[C@@H]2O [PACLITAXEL],,,44%,67%,30%,,45%,36%
C[C@H]1[C@H](C)CC[C@]2(C(=O)OCCCCCCBr)CC[C@]3(C)C(=CC[C@@H]4[C@@]5(C)CC[C@H](O)C(C)(C)[C@@H]5CC[C@]43C)[C@H]12 [BROMOHEXYL-3BETA-HYDROXY-URS-12-EN-28-OATE],3%,0%,0%,0%,,,,
CC(C)=CCOC(=O)[C@]12CC[C@@H](C)[C@H](C)[C@H]1C1=CC[C@@H]3[C@@]4(C)CC[C@H](O)C(C)(C)[C@@H]4CC[C@@]3(C)[C@]1(C)CC2,,,12%,0%,19%,21%,24%,2%
C[C@H]1[C@H](C)CC[C@]2(C(=O)OCCCCBr)CC[C@]3(C)C(=CC[C@@H]4[C@@]5(C)CC[C@H](O)C(C)(C)[C@@H]5CC[C@]43C)[C@H]12 [BROMOBUTYL-3BETA-HYDROXY-URS-12-EN-28-OATE],7%,23%,2%,10%,,,,
C[C@H]1[C@H](C)CC[C@]2(C(=O)OCCCCCCCCCCCCBr)CC[C@]3(C)C(=CC[C@@H]4[C@@]5(C)CC[C@H](O)C(C)(C)[C@@H]5CC[C@]43C)[C@H]12 [BROMODODECYL-3BETA-HYDROXY-URS-12-EN-28-OATE],0%,0%,0%,0%,,,,
C[C@H]1[C@H](C)CC[C@]2(C(=O)OCCCCCCCCBr)CC[C@]3(C)C(=CC[C@@H]4[C@@]5(C)CC[C@H](O)C(C)(C)[C@@H]5CC[C@]43C)[C@H]12 [BROMOOCTYL-3BETA-HYDROXY-URS-12-EN-28-OATE],4%,1%,0%,0%,,,,
CC1(C)CC[C@]2(C(=O)O)CC[C@]3(C)C(=CC[C@@H]4[C@@]5(C)CC[C@H](O)C(C)(C)[C@@H]5CC[C@]43C)[C@@H]2C1 [OLEANOLIC_ACID],,,24%,33%,22%,3%,26%,24%
CO[C@@]12[C@H](COC(N)=O)C3=C(C(=O)C(C)=C(N)C3=O)N1C[C@@H]1N[C@@H]12 [MITOMYCIN],,61%,,,,,,
C[C@H]1[C@H](C)CC[C@]2(C(=O)OCCBr)CC[C@]3(C)C(=CC[C@@H]4[C@@]5(C)CC[C@H](O)C(C)(C)[C@@H]5CC[C@]43C)[C@H]12,54%,23%,28%,12%,,,,
O=c1[nH]cc(F)c(=O)[nH]1 [FLUOROURACIL],69%,,30%,47%,29%,38%,36%,42%
